Experimental data published in PMC12210912, “Pharmacologic properties and inhibitory activity of 6-azasteroids against Mycobacterium leprae in vivo and in vitro” (Microbiology Spectrum, 2025).

Key:
M. leprae [1] = tested on: M. leprae; parameters: method as in PMID 34395315; conditions: cited from earlier work
M. leprae 3β-HSD = tested on: M. leprae 3β-HSD; parameters: method as in PMID 34395315; conditions: cited from earlier work
M. leprae [2] = assay: Shepard's mouse footpad model: bacilli count and molecular viability; format: in vivo, Mycobacterium leprae; conditions: for M. leprae molecular viability, median (16S rRNA cDNA/DNA, RT-qPCR) / M. leprae molecular viability: Balb/c mice footpad; for M. leprae molecular viability, median (16S rRNA cDNA/DNA, RT-qPCR): 50 mg/kg daily alone, 1 month; for M. leprae molecular viability: 50 mg/kg daily in combination with sub-inhibitory rifampicin 1 mg/kg; for bacillary load in footpad, median: Balb/c mice, 50 mg/kg daily by gavage alone, 1 month (20 doses), vehicle median 8.110 × 10^4
Description: Animal experimentation was conducted under approval by the ILSL ethical committee ([…] 02/19). Balb/c female mice with 8-week-old were inoculated with 5 × 10^3 live M. leprae bacilli, strain Thai-53, in both hind footpads, as previously described for the Shepard's model ([25]). Eight groups were tested in the experiment: (i) M. leprae control group (n = 5) inoculated with M. leprae and no additional treatment; (ii) vehicle control group (n = 4) inoculated with M. leprae and treatment with vehicle of the drugs; (iii) regular rifampicin treatment, 10 mg/Kg dose; […] (v) compound 2 treatment (n = 4), 50 mg/kg dose; […] One month after inoculation, mice from the control group were euthanized and the hind footpad was collected to assess the establishment of the infection by bacillary enumeration. At that time point, vehicle or drug treatment was started for the remaining groups. All compounds were administrated by gavage, rifampicin was administered weekly, and the compounds were administered daily (excluding weekends) for 1 month (20 doses). Mice were euthanized 6 h after administration of the last dose, and blood was collected in heparin-coated tubes by cardiac puncture for blood enzyme evaluation and compound 5 measurement by LC/MS in the plasma. The infected hind footpads from each group of mice were excised, homogenized and bacilli enumerated in a 100 μL aliquot as previously described ([26]). The remaining homogenate was centrifuged at 12,000 × g for 15 min, the supernatant was discarded, and the pellet was suspended in 750 μL of RNA later solution (Thermo Fisher Scientific). The homogenized tissue pellet was incubated at 4°C for 16 h and stored at -80°C until determination of M. leprae viability was performed by RT-qPCR ([27], [28]). […] RNA and DNA extractions were performed as previously described ([10], [27]). RNA samples were treated with the Turbo DNA-free kit (Thermo Fisher Scientific), and 1,000 ng of DNAse-treated RNA was then used to synthesize the cDNA using the GoScript kit (Promega, USA).

[3] = tested on: human type 2 5α-reductase; parameters: method as in PMID 8057283; conditions: cited from earlier work
in vivo = conditions: female, Balb/c, mouse, po, 100 mg/kg
Description: Compound 5 was solubilized in 5% DMSO in 10% Solutol with 100 mM citrate buffer (pH 3) and was tested in Balb/c female mice, approximately 8 weeks old and 20 g, at 100 mg/kg with or without 10 mg/kg rifampicin. Mice (n = 3 per group) were treated PO with drug or vehicle once daily at 8 AM. Body weights were measured daily prior to dosing. […] On day 5, mice were sacrificed at 6 h post-dose, and whole blood and plasma were extracted for complete blood count and blood chemistry profiling on an Element HT5 system (Heska, USA) and plasma drug concentration analysis was performed by LC-MS (Sciex API 4500 Triple Quad, Shimadzu LC-30A). Calibration curves were prepared as described above for in vivo metabolism and pharmacokinetics.

Glucocorticoid Receptor = target: T1, Glucocorticoid Receptor (Homo sapiens, UniProt P04150); assay: glucocorticoid receptor radioligand binding inhibition; conditions: [3H]dexamethasone binding, IM-9 cells cytosol
T1 construct: (i) GR (human) IM-9 cells (cytosol); host or cells: IM-9 cells (cytosol)
T1 sequence (P04150 1-777): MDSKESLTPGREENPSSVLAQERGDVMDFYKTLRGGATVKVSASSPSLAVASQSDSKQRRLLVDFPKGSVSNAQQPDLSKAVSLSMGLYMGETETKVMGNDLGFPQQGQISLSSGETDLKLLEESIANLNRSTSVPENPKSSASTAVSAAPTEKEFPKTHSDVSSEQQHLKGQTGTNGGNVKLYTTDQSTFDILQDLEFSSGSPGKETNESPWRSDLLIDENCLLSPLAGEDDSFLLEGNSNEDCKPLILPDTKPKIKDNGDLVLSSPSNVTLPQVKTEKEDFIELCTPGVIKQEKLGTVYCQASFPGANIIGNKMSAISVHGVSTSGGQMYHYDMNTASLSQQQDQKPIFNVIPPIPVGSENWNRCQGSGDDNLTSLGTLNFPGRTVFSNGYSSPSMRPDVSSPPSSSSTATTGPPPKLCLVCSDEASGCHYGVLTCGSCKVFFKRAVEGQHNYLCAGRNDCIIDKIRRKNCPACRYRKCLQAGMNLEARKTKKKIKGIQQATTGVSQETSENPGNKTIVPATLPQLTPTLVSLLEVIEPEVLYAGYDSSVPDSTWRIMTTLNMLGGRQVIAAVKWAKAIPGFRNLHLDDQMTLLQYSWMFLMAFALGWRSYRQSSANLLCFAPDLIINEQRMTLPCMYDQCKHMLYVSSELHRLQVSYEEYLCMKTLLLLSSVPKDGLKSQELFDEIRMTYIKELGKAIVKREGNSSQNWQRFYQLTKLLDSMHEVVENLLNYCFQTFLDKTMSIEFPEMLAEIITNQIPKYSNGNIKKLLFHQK
Description: Four nuclear receptors: glucocorticoid, androgen, LXRα, and LXRβ were assayed. Inhibition of agonist binding to each of the receptors was carried out following a standard protocol by Eurofins, Inc., USA. Compounds were tested at 10 µM. Compound binding was measured by scintillation counting and was calculated as a % inhibition of the binding of a radioactively labeled ligand specific for each target. Percent inhibition of control specific binding was expressed as
100−[(measured specific binding)/(control specific binding)∗100]
where measured specific binding is the amount of radioactive ligand binding obtained in the presence of test compounds.
(iii) LXRα (human) recombinant protein expressed in E. coli; agonist radioligand 20 nM [^3H] […] (iv) LXRβ (human) recombinant protein expressed in E. coli; agonist radioligand 20 nM [^3H]

[4] = tested on: human type 1 5α-reductase; parameters: method as in PMID 8057283; conditions: cited from earlier work

| Structure (SMILES) | intracellular viability of M. leprae in vitro (M. leprae [1]) | M. leprae 3β-HSD activity (cholestenone production in axenic medium) (M. leprae 3β-HSD) | M. leprae molecular viability, median (16S rRNA cDNA/DNA, RT-qPCR) (M. leprae [2]) | M. leprae molecular viability (M. leprae [2]) | bacillary load in footpad, median (M. leprae [2]) | inhibition of human type 2 5α-reductase [3] | concentration at 6 h (in vivo) | % inhibition observed, Glucocorticoid Receptor (Glucocorticoid Receptor; 10 µM) | inhibition at 10 µM (Glucocorticoid Receptor; read-out: % inhibition observed, Glucocorticoid Receptor) | inhibition of human type 1 5α-reductase [4] |
| --- | --- | --- | --- | --- | --- | --- | --- | --- | --- | --- |
| CC(C)(C)c1ccc(C(C)(C)C)c(NC(=O)C2CCC3C4CNC5=CC(=O)CC[C@]5(C)C4CC[C@]23C)c1 (stereo partly shown) [Compound 1] | reduce the intracellular viability of M. leprae in vitro | inhibits M. leprae 3β-HSD activity |  |  |  |  |  |  |  |  |
| CCCN1CC2C3CCC(C(=O)Nc4cc(C(C)(C)C)ccc4C(C)(C)C)[C@@]3(C)CCC2[C@@]2(C)CCC(=O)C=C12 (stereo partly shown) [Compound 2] |  |  | 0.5442% | a reduction in bacterial viability was also observed | 7.885 × 10^4 |  |  |  |  |  |
| C[C@]12CCC3C(CNC4=CC(=O)CC[C@@]43C)C1CCC2C(=O)NC(c1ccc(F)cc1)c1ccc(F)cc1 (stereo partly shown) [Compound 5] |  |  | 4.205% | a reduction in bacterial viability was also observed | 7.890 × 10^4 | nanomolar inhibitor | 292 ± 59 µM | moderate | 46.4% | nanomolar inhibitor |
